Paper PMC10938783, “A novel pan-PI3K inhibitor KTC1101 synergizes with anti-PD-1 therapy by targeting tumor suppression and immune activation” (Molecular Cancer, 2024)

Test system: B16 cells gene expression
Assay: RNA-Seq (DEGs, GSEA, heatmaps) of B16 cells
Settings: B16 cells

## COc1cc(N)cc2c1nc(C(F)F)n2-c1nc(N2CCCOCC2)nc(N2CCOCC2)n1 [KTC1101, 2-(difluoromethyl)-4-methoxy-1-(4-morpholino-6-(1,4-oxazepan-4-yl)-1,3,5-triazin-2-yl)-1H-benzo[d]imidazol-6-amine]
GSEA KEGG mmu04975, KTC 0.2μM
  NES: Fat digestion and absorption: -1.65
  enrichmentScore: Fat digestion and absorption: -0.5488
GSEA KEGG mmu04976, KTC 0.2μM
  NES: Bile secretion: 1.51
  enrichmentScore: Bile secretion: 0.4976
GSEA KEGG mmu04978, KTC 0.2μM
  NES: Mineral absorption: -1.388
  enrichmentScore: Mineral absorption: -0.4138
GSEA KEGG mmu04979, KTC 0.2μM
  NES: Cholesterol metabolism: -1.456
  enrichmentScore: Cholesterol metabolism: -0.4442
GSEA KEGG mmu05010, KTC 0.2μM
  NES: Alzheimer disease: -1.608
  enrichmentScore: Alzheimer disease: -0.3072
GSEA KEGG mmu05012, KTC 0.2μM
  NES: Parkinson disease: -1.964
  enrichmentScore: Parkinson disease: -0.3949
GSEA KEGG mmu05014, KTC 0.2μM
  NES: Amyotrophic lateral sclerosis: -1.71
  enrichmentScore: Amyotrophic lateral sclerosis: -0.329
GSEA KEGG mmu05016, KTC 0.2μM
  NES: Huntington disease: -1.539
  enrichmentScore: Huntington disease: -0.3057
GSEA KEGG mmu05020, KTC 0.2μM
  NES: Prion disease: -1.774
  enrichmentScore: Prion disease: -0.3631
GSEA KEGG mmu05022, KTC 0.2μM
  NES: Pathways of neurodegeneration - multiple diseases: -1.25
  enrichmentScore: Pathways of neurodegeneration - multiple diseases: -0.2359
GSEA KEGG mmu05032, KTC 0.2μM
  NES: Morphine addiction: 2.084
  enrichmentScore: Morphine addiction: 0.6804
GSEA KEGG mmu05140, KTC 0.2μM
  NES: Leishmaniasis: 1.636
  enrichmentScore: Leishmaniasis: 0.5458
GSEA KEGG mmu05142, KTC 0.2μM
  NES: Chagas disease: 1.762
  enrichmentScore: Chagas disease: 0.5294
GSEA KEGG mmu05146, KTC 0.2μM
  NES: Amoebiasis: 1.187
  enrichmentScore: Amoebiasis: 0.3662
GSEA KEGG mmu05161, KTC 0.2μM
  NES: Hepatitis B: 1.161
  enrichmentScore: Hepatitis B: 0.3151
GSEA KEGG mmu05163, KTC 0.2μM
  NES: Human cytomegalovirus infection: 1.262
  enrichmentScore: Human cytomegalovirus infection: 0.333
GSEA KEGG mmu05166, KTC 0.2μM
  NES: Human T-cell leukemia virus 1 infection: 1.309
  enrichmentScore: Human T-cell leukemia virus 1 infection: 0.342
GSEA KEGG mmu05167, KTC 0.2μM
  NES: Kaposi sarcoma-associated herpesvirus infection: 1.355
  enrichmentScore: Kaposi sarcoma-associated herpesvirus infection: 0.3649
GSEA KEGG mmu05168, KTC 0.2μM
  NES: Herpes simplex virus 1 infection: 1.765
  enrichmentScore: Herpes simplex virus 1 infection: 0.4327
GSEA KEGG mmu05202, KTC 0.2μM
  NES: Transcriptional misregulation in cancer: 1.705
  enrichmentScore: Transcriptional misregulation in cancer: 0.4772
GSEA KEGG mmu05205, KTC 0.2μM
  NES: Proteoglycans in cancer: 1.25
  enrichmentScore: Proteoglycans in cancer: 0.3314
GSEA KEGG mmu05208, KTC 0.2μM
  NES: Chemical carcinogenesis - reactive oxygen species: -1.582
  enrichmentScore: Chemical carcinogenesis - reactive oxygen species: -0.3305
GSEA KEGG mmu05215, KTC 0.2μM
  NES: Prostate cancer: 1.478
  enrichmentScore: Prostate cancer: 0.4248
GSEA KEGG mmu05217, KTC 0.2μM
  NES: Basal cell carcinoma: -1.6573
  enrichmentScore: Basal cell carcinoma: -0.5057
GSEA KEGG mmu05221, KTC 0.2μM
  NES: Acute myeloid leukemia: 1.189
  enrichmentScore: Acute myeloid leukemia: 0.3668
GSEA KEGG mmu05222, KTC 0.2μM
  NES: Small cell lung cancer: 1.1778
  enrichmentScore: Small cell lung cancer: 0.3365
GSEA KEGG mmu05224, KTC 0.2μM
  NES: Breast cancer: 1.3909
  enrichmentScore: Breast cancer: 0.3926
GSEA KEGG mmu05225, KTC 0.2μM
  NES: Hepatocellular carcinoma: -1.183
  enrichmentScore: Hepatocellular carcinoma: -0.2565
GSEA KEGG mmu05226, KTC 0.2μM
  NES: Gastric cancer: 1.191
  enrichmentScore: Gastric cancer: 0.3347
GSEA KEGG mmu05230, KTC 0.2μM
  NES: Central carbon metabolism in cancer: -1.65
  enrichmentScore: Central carbon metabolism in cancer: -0.4278
GSEA KEGG mmu05321, KTC 0.2μM
  NES: Inflammatory bowel disease: 1.418
  enrichmentScore: Inflammatory bowel disease: 0.5282
GSEA KEGG mmu05323, KTC 0.2μM
  NES: Rheumatoid arthritis: 1.449
  enrichmentScore: Rheumatoid arthritis: 0.4777
GSEA KEGG mmu05410, KTC 0.2μM
  NES: Hypertrophic cardiomyopathy: 1.341
  enrichmentScore: Hypertrophic cardiomyopathy: 0.4238
GSEA KEGG mmu05414, KTC 0.2μM
  NES: Dilated cardiomyopathy: 1.501
  enrichmentScore: Dilated cardiomyopathy: 0.4674
GSEA KEGG mmu05415, KTC 0.2μM
  NES: Diabetic cardiomyopathy: -1.29
  enrichmentScore: Diabetic cardiomyopathy: -0.2769
GSEA KEGG mmu05418, KTC 0.2μM
  NES: Fluid shear stress and atherosclerosis: -1.4518
  enrichmentScore: Fluid shear stress and atherosclerosis: -0.3333
KTC1101 0.2μM, GSEA KEGG
  NES, mmu00071 Fatty acid degradation: 0.7528
  NES, mmu00310 Lysine degradation: -0.7398
  NES, mmu00380 Tryptophan metabolism: 1.209
  NES, mmu00500 Starch and sucrose metabolism: -1.196
  NES, mmu00510 N-Glycan biosynthesis: -0.6482
  NES, mmu00513 Various types of N-glycan biosynthesis: 1.019
  NES, mmu00514 Other types of O-glycan biosynthesis: 1.221
  NES, mmu00562 Inositol phosphate metabolism: -1.021
  NES, mmu00564 Glycerophospholipid metabolism: -0.7177
  NES, mmu00600 Sphingolipid metabolism: -0.9518
  NES, mmu00860 Porphyrin metabolism: -1.036
  NES, mmu00980 Metabolism of xenobiotics by cytochrome P450: -1.182
  NES, mmu00982 Drug metabolism - cytochrome P450: -1.185
  NES, mmu01250 Biosynthesis of nucleotide sugars: -1.14
  NES, mmu01522 Endocrine resistance: 0.9546
  NES, mmu01523 Antifolate resistance: -0.7817
  NES, mmu02010 ABC transporters: -0.733
  NES, mmu03008 Ribosome biogenesis in eukaryotes: 0.4012
  NES, mmu03015 mRNA surveillance pathway: -0.5314
  NES, mmu03018 RNA degradation: -0.9036
  NES, mmu03022 Basal transcription factors: -0.6056
  NES, mmu03040 Spliceosome: -0.8341
  NES, mmu03060 Protein export: -1.073
  NES, mmu03082 ATP-dependent chromatin remodeling: 0.5087
  NES, mmu03083 Polycomb repressive complex: 0.285
  NES, mmu03250 Viral life cycle - HIV-1: -0.5849
  NES, mmu03410 Base excision repair: 0.509
  NES, mmu03420 Nucleotide excision repair: -0.5668
  NES, mmu03430 Mismatch repair: -0.5004
  NES, mmu03460 Fanconi anemia pathway: -1.065
  NES, mmu04014 Ras signaling pathway: -1.059
  NES, mmu04068 FoxO signaling pathway: 0.8311
  NES, mmu04070 Phosphatidylinositol signaling system: -0.719
  NES, mmu04071 Sphingolipid signaling pathway: -0.7752
  NES, mmu04115 p53 signaling pathway: 0.8074
  NES, mmu04120 Ubiquitin mediated proteolysis: -0.8155
  NES, mmu04130 SNARE interactions in vesicular transport: -0.572
  NES, mmu04136 Autophagy - other: 0.5764
  NES, mmu04137 Mitophagy - animal: -1.12
  NES, mmu04140 Autophagy - animal: -0.941
  NES, mmu04144 Endocytosis: 0.5953
  NES, mmu04146 Peroxisome: 0.8534
  NES, mmu04148 Efferocytosis: 0.8875
  NES, mmu04150 mTOR signaling pathway: -1.035
  NES, mmu04152 AMPK signaling pathway: -1.036
  NES, mmu04210 Apoptosis: 0.7025
  NES, mmu04211 Longevity regulating pathway: 0.8953
  NES, mmu04213 Longevity regulating pathway - multiple species: 0.9083
  NES, mmu04215 Apoptosis - multiple species: 0.9536
  NES, mmu04216 Ferroptosis: -1.019
  NES, mmu04217 Necroptosis: -1.0231
  NES, mmu04270 Vascular smooth muscle contraction: 0.9765
  NES, mmu04360 Axon guidance: 1.086
  NES, mmu04392 Hippo signaling pathway - multiple species: 1.0712
  NES, mmu04514 Cell adhesion molecules: 1.133
  NES, mmu04520 Adherens junction: 0.8769
  NES, mmu04530 Tight junction: -0.672
  NES, mmu04550 Signaling pathways regulating pluripotency of stem cells: 1.1205
  NES, mmu04611 Platelet activation: 0.9386
  NES, mmu04612 Antigen processing and presentation: 0.9078
  NES, mmu04622 RIG-I-like receptor signaling pathway: 0.797
  NES, mmu04623 Cytosolic DNA-sensing pathway: 1.118
  NES, mmu04650 Natural killer cell mediated cytotoxicity: 0.8466
  NES, mmu04658 Th1 and Th2 cell differentiation: 1.107
  NES, mmu04660 T cell receptor signaling pathway: 0.5971
  NES, mmu04662 B cell receptor signaling pathway: 0.8546
  NES, mmu04666 Fc gamma R-mediated phagocytosis: -1.143
  NES, mmu04670 Leukocyte transendothelial migration: 0.7018
  NES, mmu04714 Thermogenesis: -1.042
  NES, mmu04720 Long-term potentiation: 0.7614
  NES, mmu04723 Retrograde endocannabinoid signaling: 1.004
  NES, mmu04726 Serotonergic synapse: 1.185
  NES, mmu04727 GABAergic synapse: 1.114
  NES, mmu04728 Dopaminergic synapse: 0.9578
  NES, mmu04730 Long-term depression: 1.063
  NES, mmu04750 Inflammatory mediator regulation of TRP channels: 0.9151
  NES, mmu04910 Insulin signaling pathway: 1.052
  NES, mmu04912 GnRH signaling pathway: 1.125
  NES, mmu04915 Estrogen signaling pathway: 0.9405
  NES, mmu04916 Melanogenesis: 0.9564
  NES, mmu04917 Prolactin signaling pathway: 0.9333
  NES, mmu04920 Adipocytokine signaling pathway: 1.108
  NES, mmu04929 GnRH secretion: -1.07
  NES, mmu04930 Type II diabetes mellitus: 1.078
  NES, mmu04932 Non-alcoholic fatty liver disease: -1.05
  NES, mmu04934 Cushing syndrome: 0.9692
  NES, mmu04936 Alcoholic liver disease: 0.7413
  NES, mmu04960 Aldosterone-regulated sodium reabsorption: 1.176
  NES, mmu04961 Endocrine and other factor-regulated calcium reabsorption: 0.9748
  NES, mmu04962 Vasopressin-regulated water reabsorption: 1.132
